According to US20250295799A1, “ANTIBODY-DRUG CONJUGATES TARGETING GLYPICAN-3 AND METHODS OF USE” (Zymeworks BC Inc., priority 2022, published 2025):

Tests used:
[1] = tested on: JHH-5 cells (mid GPC3-expressing); test: Internalization by flow cytometry (quenched AF488); format: cell-based; conditions: 5 nM, 24 h
Method: Cells were seeded at 50,000 cells/well in 48-well plates and incubated overnight under standard culturing conditions (37° C./5% CO2) Gibco™ William's E Medium, GlutaMAX™ Supplement (Thermo Fisher Scientific, Waltham, MA; Cat. No. 32551020) with 10% FBS (Thermo Fisher Scientific, Waltham, MA; Cat. No. 12483020). Coupled antibodies were added to cells the following day at 5 nM and incubated under standard culturing conditions for 24 hours to allow for internalization. Following incubation, cells were dissociated, washed, and surface AF488 fluorescence was quenched using an anti-AF488 antibody (Life Technologies, Carlsbad, CA; Cat. No. A-11094) at 100 nM for 30 minutes at 4° C. Quenched AF488 fluorescence (internalized fluorescence) was detected by flow cytometry on a BD LSRFortessa™ Cell Analyzer (BD Biosciences, Franklin Lake, NJ) with 1,000 minimum events collected per well.
Briefly, plasma stress was carried out by incubating M3-H18L6 LC-modified antibodies in mouse plasma (BioIVT, Westbury, NY; Cat. No. MSE00PL38NC-0103070) for 14 days in a 37° C./5% CO2 incubator. […] Following incubation and washing, fluorescence was detected by flow cytometry on a BD LSRFortessa™ Cell Analyzer (BD Biosciences, Franklin Lake, NJ) with 1,000 minimum events collected per well. […]

[2] = tested on: GFP-transfected CHO cells; test: Binding to transfected CHO-S cells by flow cytometry (negative transfection control)
Method: Briefly, CHO—S cells were transiently transfected for −24 hours with a pTT5-based expression plasmid encoding human GPC3 or cynomolgus monkey GPC3, 0.5 μg DNA per 1 million cells, using the Neon™ Transfection System (Thermo Fisher Scientific Corp., Waltham, MA), to transiently express human or cynomolgus monkey GPC3. Cells transfected with GFP were used as negative transfection controls. Following transfection, cells were seeded at 50,000 cells/well in V-bottom 96-well plates and treated with antibody for 24 hours at 4° C. to prevent internalization. […] Following incubation and washing, fluorescence was detected by flow cytometry on a BD LSRFortessa™ Cell Analyzer (BD Biosciences, Franklin Lake, NJ) with 1,000 minimum events collected per well. AF647/APC-A GeoMean (fluorescence signal geometric mean, proportional to anti-Human AF647 binding) in live cell population was plotted against antibody concentration using GraphPad Prism Version 9 (GraphPad Software, San Diego, CA). The Bmax and Kd values were derived from the “Specific binding with Hill slope” nonlinear regression curve fit in GraphPad Prism Version 9.

[3] = target: T1, human GPC3 on transfected CHO-S cells (Homo sapiens, UniProt P51654); test: Binding to transfected CHO-S cells by flow cytometry; conditions: 24 h at 4 °C
T1 construct: expressed in transfected cells; host or cells: CHO-S cells, transient transfection (Neon system)
Method: (§1) Following transfection, cells were seeded at 50,000 cells/well in V-bottom 96-well plates and treated with antibody for 24 hours at 4° C. to prevent internalization. […] Following incubation and washing, fluorescence was detected by flow cytometry on a BD LSRFortessa™ Cell Analyzer (BD Biosciences, Franklin Lake, NJ) with 1,000 minimum events collected per well.
as §1

JHH-7 cells (GPC3-high) = test: On-cell binding by flow cytometry; conditions: flow cytometry
Method: (§2) Briefly, cells were seeded at 50,000 cells/well in V-bottom 96-well plates and treated with antibody for 24 hours at 4° C. to prevent internalization. […] Following incubation and washing, fluorescence was detected by flow cytometry on a BD LSRFortessa™ Cell Analyzer (BD Biosciences, Franklin Lake, NJ) with 1,000 minimum events collected per well. AF647/APC-A GeoMean (fluorescence signal geometric mean, proportional to anti-Human AF647 binding) in live cell population was plotted against antibody concentration using GraphPad Prism Version 9 (GraphPad Software, San Diego, CA). The Bmax, Curve Hill Slope (h) and Kd values were derived from the “Specific binding with Hill slope” nonlinear regression curve fit in GraphPad Prism Version 9.
(§3) The on-cell binding capabilities of light chain (LC)-modified M3-H18L6 antibody constructs were assessed on JHH-7 (hepatocellular carcinoma; GPC3-high) and JHH-5 (hepatocellular carcinoma; GPC3-mid) by flow cytometry as described below. […] The assay was carried out as described in Example 13.
(§4) Briefly, plasma stress was carried out by incubating M3-H18L6 LC-modified antibodies in mouse plasma (BioIVT, Westbury, NY; Cat. No. MSE00PL38NC-0103070) for 14 days in a 37° C./5% CO2 incubator. […] Following incubation and washing, fluorescence was detected by flow cytometry on a BD LSRFortessa™ Cell Analyzer (BD Biosciences, Franklin Lake, NJ) with 1,000 minimum events collected per well. AF647/APC-A GeoMean (fluorescence signal geometric mean, proportional to anti-Human AF647 binding) in live cell population was plotted against antibody concentration using GraphPad Prism Version 9 (GraphPad Software, San Diego, CA). […] Following incubation, cells were dissociated, washed, and surface AF488 fluorescence was quenched using an anti-AF488 antibody (Life Technologies, Carlsbad, CA; Cat. No. A-11094) at 100 nM for 30 minutes at 4° C. Quenched AF488 fluorescence (internalized fluorescence) was detected by flow cytometry on a BD LSRFortessa™ Cell Analyzer (BD Biosciences, Franklin Lake, NJ) with 1,000 minimum events collected per well.

JHH-5 cells (GPC3-mid) = test: On-cell binding by flow cytometry
Method: as §2, §3, §4

## palivizumab
[1]
  internalization, in words: minimal internalization
[2]
  binding to GFP-transfected CHO cells, in words: did not exhibit any binding
[3]
  binding to CHO-S cells expressing human GPC3, in words: did not exhibit any binding
JHH-7 cells (GPC3-high)
  binding to JHH-7 cells, in words: did not exhibit any binding
JHH-5 cells (GPC3-mid)
  binding to JHH-5 cells, in words: did not exhibit any binding
